Marks after values point to notes of the source that are not given here. Where no end group is shown, it is not given here.
Tests used:
Male Wistar rats = assay: Quantitative immunohistochemistry: relative optical density and numbers of stained cells or accumulations; assay type: in vivo, rat; settings: for APP Accumulation / GFAP Intensity / OX6 Intensity: vehicle (not in brackets), mean ± SEM, n = 4
Description: Male Wistar rats (250 to 300 grams; Charles River, Montreal, Quebec) were divided into 4 groups: intracerebroventricular injections of Aβ(25-35) (BACHEM, Torrance, Calif.); endothelin injections into the right striatum; both Aβ(25-35) and striatal endothelin injections; and sham procedures. The Aβ(25-35) fragment was used to reduce the possibility of rapid coagulation and to allow diffusion of the peptide into the brain.
All rats were anesthetized using 40 mg/kg of pentobarbital (Somnotol; MTC Pharmaceuticals, Cambridge, Ontario) intraperitoneally. Body temperature was maintained at 37° C. Aβ(25-35) (50 nmol in 10 μL of saline) was injected bilaterally into the lateral ventricles. Aβ(25-35) was prepared according to established methods (Sigurdsson, et al. (1997) supra). Aβ(25-35) (50 nmol in 10 μL of saline at a rate of 1 μL/minute) was injected bilaterally into the lateral ventricles via a stainless-steel cannula (23-gauge; anterior/posterior −0.8, medial/lateral ±1.4, and dorsal/ventral −4.0 below dura). Two endothelin injections (6 pmol in 3 μL of saline), 1 mm apart, were made into the right striatum (Sigurdsson, et al. (1997) supra). Sham procedures involved all the surgical steps without injections of Aβ(25-35) or endothelin. After wound suture, all rats received 40 mg/kg of buprenorphine intramuscularly and were allowed to recover from surgery for 7 days.
Twenty-one days after surgery, all animals were euthanized via pentobarbital overdose and perfused transaortically first with saline followed by 4% formaldehyde (pH 7.4). The brains were removed and cryoprotected in 30% sucrose for 36 hours at 4° C. Coronal sections (30 pm) were cut using a cryostat.
Free-floating sections from rat brains (n=5 for each group) were treated with 0.03% hydrogen peroxide and blocked with 3 mL of horse or rabbit serum (VECTASTAIN® Elite, Vector Laboratories, Burlingame, Calif.). The following primary antibodies were diluted in filtered phosphate-buffered saline: APPa4 mouse monoclonal (Chemicon International Inc, Temecula, Calif.; 1:1000), GFAP mouse monoclonal (Sigma-Aldrich, St Louis, Mo.; 1:1000), OX-6 mouse monoclonal (Serotec, Inc., Raleigh, N.C.; 1:1000), Tau-2 mouse monoclonal (Sigma-Aldrich, St Louis, Mo.; 1:10000), NFκB(p65) goat polyclonal (Santa Cruz Biotechnologies, Santa Cruz, Calif.; 1:1000), IL-1β goat polyclonal (Santa Cruz Biotechnologies, Santa Cruz, Calif.; 1:1000), and TNF-α-M18 goat polyclonal (Santa Cruz Biotechnologies, Santa Cruz, Calif.; 1:1000). APP-, Tau-2-, GFAP-, and OX-6-stained sections were incubated with 3 mL of horse biotinylated anti-mouse secondary antibody and horse serum. NFκB(p65), IL-1β, and TNF-α-stained sections were incubated with 3 mL of biotinylated rabbit anti-goat secondary antibody and rabbit serum. Sections were then incubated in 3 mL of avidin-biotin complex followed by 0.05% diaminobenzidine. Sections were washed, air-dried, cleared in xylene, and cover-slipped. Brains to be compared were processed at the same time using the same solutions to reduce variability in immunostaining caused by separate processing.
Digital photographs were taken using a light microscope (Leitz Diaplan). An investigator was blinded to the identification of the rat sections while analysis was being performed. All immunohistochemical data that were compared was processed at the same time to reduce any variation caused by differences of intensity. A grading scale was based on both observable size and intensity of staining (n=5 for each group). Also, relative optical density measurements and numbers of stained cells or accumulations were measured in entire brain areas for quantitative analysis and statistically analyzed with ANOVA and Tukey post hoc test with a significance level of P<0.05.

rats = assay: Barnes circular platform test; assay type: in vivo, rat; settings: 50 nmol intracerebroventricular; memory test trial (day 8) vs last trial of training (day −1); P<0.01
Description: All rats were anesthetized using 40 mg/kg of pentobarbital (Somnotol; MTC Pharmaceuticals, Cambridge, Ontario) intraperitoneally. Body temperature was maintained at 37° C. Aβ(25-35) (50 nmol in 10 μL of saline) was injected bilaterally into the lateral ventricles. Aβ(25-35) was prepared according to established methods (Sigurdsson, et al. (1997) supra). […] (1997) supra). […] After wound suture, all rats received […] of buprenorphine intramuscularly and were allowed to recover from surgery for 7 days. Learning and memory deficits were assessed using the Barnes circular platform. There are twenty holes evenly located along the border of circular platform with a hidden escape box beneath one of the holes. The circular platform is equipped with colored cues on the surrounding wall. A bright light combined with wind from a fan hung on the ceiling above the platform provides the incentive for the rats to find the hidden box and enter the escape hole. During each trial, the rats were initially placed in the center of the platform under an inverted box, then the box was lifted up and the rat is allowed to find the hole for up to 4 minutes. The latency (time to enter the escape hole) was recorded during the trial. There was a training period (trials 1-14) performed at day −7 to day −1 before surgery (day 0). PDTC or vehicle treatment was given 30 minutes before Aβ(25-35) injections and from days 1 to 7 post-surgery. Spatial memory was then tested on day 8 (trial 15) with the escape hole placed in the same location. Spatial learning was examined by re-testing (re-acquisition) from days 9 to 15 (trials 16-29) with the escape box relocated at […] from the original location. Digital photographs were taken using a light microscope (Leitz Diaplan). […] Also, relative optical density measurements and numbers of stained cells or accumulations were measured in entire brain areas for quantitative analysis and statistically analyzed with ANOVA and Tukey post hoc test with a significance level of P<0.05. […] The staircase data are expressed as the mean±SEM. […] Data are expressed as mean±SEM. […]

For “GSNKGAIIGLM [Aβ, β-amyloid fragment (25-35), 50 nmol injected bilaterally into the lateral ventricles of rats]”, the “average numbers of OX-6-stained microglia” value (Male Wistar rats; CA1 of the hippocampus) was 13.4±5.1, the “Average intensity measurements for GFAP” value (Male Wistar rats; Hippocampus) was 162.9±8.7 and the “APP Accumulation” value (Male Wistar rats; Left Cortex) was 36.8 ± 7.8^y. The “GFAP Intensity” value (Male Wistar rats; Left Hippocampus) was 167.5 ± 5.2, the “OX6 Intensity” value (Male Wistar rats; Left Hippocampus) was 116.2 ± 6.7 and the “APP Accumulation” value (Male Wistar rats; Right Cortex) was 37.8 ± 5.4^y. For the same sequence, the “GFAP Intensity” value (Male Wistar rats; Right Hippocampus) was 166.5 ± 4.2, the “OX6 Intensity” value (Male Wistar rats; Right Hippocampus) was 119.3 ± 9.1 and the “latency (time to enter the escape hole)” value (rats) was “increased latency”.
